The record followed here is a melting point compilation (Tetko et al.; mined from patent text by program, amines drawn as free bases though some values may be those of a salt).

Molecules are shown by their SMILES. Some results are limits rather than exact numbers.

`O=C(Cc1ccncc1)NC(Cc1ccc(Cl)c(Cl)c1)C(=O)CCc1cc(C(F)(F)F)cc(C(F)(F)F)c1` (stereo unspecified) came in with a melting point of 142 to 144 °C.
`CCc1noc(-c2cn(-c3cccc(Oc4ccc(Cl)cc4)c3)cn2)n1`: the melting point fell in the range of 120 to 122 °C.
The same measure for `N#CNC(=N)NCCc1c[nH]cn1`: 152 to 154 °C; for `Cc1nc(C)c(Cl)c(NCc2ccc(OCc3ccccc3)c(OCC(F)(F)F)c2)n1`: 135 to 138 °C; for `OCc1coc(Cc2ccc(F)cc2)c1`: 45 to 47 °C.
Take `CCCCCCCCCOc1cc(C(=O)Nc2c(Cl)cncc2Cl)ccc1OC`: the melting point lay in the range of 151 to 153 °C.
To `c1coc(CNc2nccc3ccccc23)c1` belongs 76 to 77 °C; to `CC(C)(C)c1ccccc1-n1c(=O)[nH]c2c(C(N)=O)nc(-c3cccc(O)c3)nc21`, 294 to 297 °C.
The same measure for `CCOC(=O)C1NC(=O)C1OC` (stereo unspecified): 91 to 92 °C.
Turning to `O=C(Nc1ccc(-n2nc(C(F)(F)F)cc2C(F)(F)F)cc1)c1ccncc1`, the melting point lay within 156 to 157 °C.
The same measure for `Cc1cnc(-c2ccc(C(F)(F)F)cc2)nc1Cl`: 110 to 112 °C; for `Cc1ccc(OCC(=O)O)c2sc3ccccc3c(=O)c12`: 198 to 235 °C; for `O=[N+]([O-])c1ccccc1NCCNc1ccccc1`: 64 to 66 °C.
To `CN(C)C1N(C(=O)c2ccccc2)N=C2c3ccccc3SN21` (stereo unspecified) belongs 155 to 156 °C; to `COC[C@H](C1CC1)n1cc(Cl)nc(Nc2cc(C)c(OC)nc2C)c1=O`, 99 to 100 °C; to `c1ccc2c(c1)CCCC1C2=NNC1c1ccncc1` (stereo unspecified), 152 to 157 °C.
Take `Cc1nccc2c3ccc(OCC4CCCCC4)cc3n(CC3CCCCC3)c12`: the melting point came to 152 °C.
Regarding `CC(C)c1ccc(N(Cc2ccc(N(C)C)cc2)C(=O)C2CCCc3cc(O)ccc32)cc1` (stereo unspecified), the melting point lay in the range of 169 to 171 °C.
To `CCC(C)(C)c1ccc(S(=O)(=O)Nc2ncnc(OCCOc3ccc(Br)cn3)c2-c2ccc(C)cc2)cc1` belongs 154 °C; to `CCCOc1nc2ccc(I)cc2c(=O)n1CCC`, 49 to 53 °C; to `CCS(=O)(=O)Nc1cc(-c2nsc(C(F)(F)F)c2Cl)c(Cl)cc1Cl`, 135 °C.
Consider `COC(=O)CSC1c2ccccc2C=Cc2ccccc21`, for which the melting point was in the range of 74 to 76 °C.
To `COc1cc(OC)c2c(=O)[nH]c(-c3cc(C)c(OCCn4ccnc4)c(C)c3)nc2c1` belongs 218 to 219 °C.
To `O=S1(=O)NCN(C2CC2)c2c1ccc(F)c2Cl` belongs 141 to 143 °C.
The compound `C[C@@H](O)[C@H]1CC[C@H]2[C@@H]3CC=C4CC(=O)CC[C@]4(C)[C@H]3CC[C@]12C` registered a melting point of 171 to 175 °C.
The same measure for `CC(C)(CO)c1ccc(C(=O)Nc2cn3cc(Cl)ccc3n2)cc1`: 240 to 242 °C; for `CNS(=O)(=O)CC(N)=O`: 104 to 108 °C; for `CC1(C)CCn2c(nc(-c3ccncc3)cc2=O)N1`: 345 to 347 °C.
For `CCOC(=O)C1=C(C)NC(C)=C(c2nnco2)C1c1cccc(Cl)c1Cl` (stereo unspecified), the melting point lay within 187 to 189 °C.
The same measure for `Cc1cc(N)ccc1Oc1ccc(Oc2ccc(N)cc2C)cc1`: 195 to 196 °C.
Take `O=C1CCS(=O)(=O)c2sccc21`: the melting point lay in the range of 121 to 122 °C.
`CCOC(=O)c1cc2cccnc2nc1C(=O)OCC`: the melting point fell in the range of 83 to 85 °C.
The same measure for `Cc1nc2ccc(Cl)cc2c(-c2ccc(F)cc2)c1CO`: 173 to 175 °C; for `COc1cccc2c1CCN([C@@H]1CN3CCC1CC3)C2=O`: more than 290 °C; for `CCCOc1ccc(SCCSc2ccc(OCCC)cc2)cc1`: 111 to 112 °C.
For `COC1CCN2C(=O)c3cccc([N+](=O)[O-])c3C2C1` (stereo unspecified), the melting point is 132 to 134 °C.
Regarding `CCOC(=O)c1c(C)nc(N2CCNCC2)nc1N1CCS(=O)(=O)CC1`, the melting point lay within 154 to 159 °C.
Compound `NC(=O)c1cc2c(c3nc(O)c(O)nc13)CCCC2` showed a melting point of more than 300 °C.
On to `Cn1nnc2cc3c(cc2c1=O)OC1CCCN1C3=O` (stereo unspecified), for which the melting point lay in the range of 249 to 251 °C.
`Clc1nn(-c2cccnc2)cc1NCC1CC1` gave a melting point of 82 to 83 °C.
`O=c1ccn(-c2cccc(C(F)(F)F)c2)nc1-c1cc(C(F)(F)F)nn1-c1ccccc1` displayed a melting point of 190 to 191 °C.
To `CC1(C)CC(=O)c2c(NCc3ccccc3)sc(-c3cc[nH]n3)c2C1` belongs 204 to 206 °C.
In turn, `CS(=O)(=O)c1ccc(CCNC(=O)C(N)=O)cc1OC1CCCC1` gave a melting point of 185 to 186 °C.
The same measure for `CCCn1c(=O)n(C2CCN(C(=O)OC(C)(C)C)CC2)c2ccccc21`: 102 to 105 °C; for `Cn1c(C=[N+](C)[O-])cnc1[N+](=O)[O-]`: 208 to 209 °C; for `COC(=O)c1ccc(Cn2nc(Cl)c3ccc([N+](=O)[O-])cc32)c(OC)c1`: 131 to 132 °C.
To `COC(=O)c1ccc(-c2nc(-c3ccc4c(c3)C(C)(C)CCC4(C)C)no2)cc1` belongs 166 to 168 °C; to `O=C(NOCCO)c1cc(F)c(F)c(F)c1Nc1ccc(I)cc1Cl`, 183 to 184 °C; to `CN(C)Cc1cccc(-c2[nH]c3cccc4c3c2CCNC4=O)c1`, 222 to 225 °C.
To `Nc1nc(-c2ccc3c(c2)OCCO3)c(-c2ccccn2)s1` belongs 214 °C; to `CC(=O)Nc1ncc(C)cc1Br`, 65 to 66 °C.
The compound `O=S(=O)(c1ccc(Cl)cc1)N1CCCC1c1cccs1` (racemic) registered a melting point of 84 °C.
The same measure for `COC(=O)C(=CNc1ncnc2ccc(NC(=O)C(C)(C)C)cc12)C(=O)OC`: 189 to 190 °C; for `CCOC(C#N)Cc1ccc(O)c(N)c1` (stereo unspecified): 114 to 115 °C; for `CCOC(=O)CSC1(SCC(=O)OCC)CCC2C3CCC4=CC(=O)C=CC4(C)C3(F)C(O)CC21C` (stereo unspecified): 125 to 127 °C.
`CCn1nnc(Nc2ccc3nc(NCc4ccccc4OC)ccc3c2)n1` displayed a melting point of 190 °C.
To `CSc1ccc(-c2coc3ccc(-c4nnc(C)o4)cc23)cc1Cl` belongs 200 to 201 °C; to `CCC(O)CP(=O)(O)CCCN` (stereo unspecified), 184 to 185 °C.
`O=C(O)Cc1ccc2oc(-c3ccccc3)nc2c1`: the melting point was found to be 175 °C.
The same measure for `CCOP(=O)(CCN1CCC(N(CCN)S(=O)(=O)c2ccc(Nc3nccc(Nc4ccc(F)cc4)n3)cc2)CC1)OCC`: 90 °C; for `COc1cc(CNc2nc(C)nc(C)c2Cl)ccc1Oc1ccc2ncc([N+](=O)[O-])n2n1`: 229 to 232 °C.
The same measure for `N#Cc1ccccc1-c1ccc(CN=[N+]=[N-])cc1`: 69 to 70 °C; for `CN1CCC(c2cnn3c(-c4cccc(NC(=O)c5cccc(C(F)(F)F)c5)c4)ccnc23)CC1`: 183 to 185 °C.
As to `O=C(O)C=Cc1cc(Oc2c(Cl)cc(C(F)(F)F)cc2Cl)ccc1[N+](=O)[O-]`, the melting point worked out at 192 °C.
On to `Nc1c(Cl)nc2ccccc2c1NCc1ccccn1`, for which the melting point is 98 to 102 °C.
The same measure for `COC1(OC)CN(c2cc3c(cc2F)c(=O)c(C(=O)O)cn3-c2ccc(F)cc2F)CC1C` (stereo unspecified): 193 to 194 °C; for `CC(C)C(=O)O[C@H](C)[C@@H](C)OC(=O)[C@@H](N)Cc1ccc(O)c(O)c1`: 165 to 166 °C.
The compound `CCCCCCCCCCCCc1ccc(S(=O)(=O)Cl)cc1` yielded a melting point of 33 to 35 °C.
As for `CCCCCCCCCC(=O)C1C(=O)CC(C)OC1=O` (stereo unspecified), the melting point fell in the range of 62 to 63 °C.
For the compound `Cc1c(-c2ccc3oc(SCc4ccccn4)nc3c2)nc2ccccn12`, the melting point was in the range of 116 to 118 °C.
The same measure for `CN1C(=O)CN=C(c2ccccc2Cl)c2cccn21`: 132 to 134 °C.
To `COC(=O)c1cc(=O)c2ccccc2o1` belongs 120 to 122 °C; to `CC1(C)Oc2ccc(S(=O)(=O)c3ccc(O)cc3)cc2[C@@H](Oc2ccc(O)nn2)[C@]1(C)O`, more than 200 °C; to `CCCCCCCCCCc1ccc(C[N+](=O)[O-])cc1`, 50 °C.
As to `Cc1ccc([N+](=O)[O-])cc1Nc1nnn[nH]1`, the melting point lay within 245 to 249 °C.
To `Cc1cc(-n2cc(I)nc2C)ccc1[N+](=O)[O-]` belongs 146 to 148 °C.
To `O=C1CCC(N2C(=O)c3cccc(OCc4ccc(CN5CCN6N=C(C(F)(F)F)NC6C5)cc4)c3C2=O)C(=O)N1` (stereo unspecified) belongs 128 to 130 °C; to `CC(=O)NN1CC(C)=NNC1=O`, 197 to 199 °C; to `CCNC(=O)CCCC1CCN(Cc2cnc3c(C)c(NC(=O)c4ccc(-c5ccc(F)cc5)cc4)ccc3c2)CC1`, 217 to 220 °C.
The same measure for `O=C(NCCc1c[nH]c2ccccc12)c1cccnc1`: 150 to 152 °C; for `COc1ccc2c(c1OCc1ccccc1)CCN(C(C)=O)C2`: 94 to 95 °C; for `CC(=O)c1nn(CCOS(C)(=O)=O)cc1C`: 108 to 109 °C.
Compound `CCOc1ccc(S(=O)(=O)N(CCO)c2ccccc2/C=C/c2ccncc2)cc1` registered a melting point of 167 to 169 °C.
In the case of `Cc1ncc2c(c1O)COC2S(C)(=O)=O` (stereo unspecified), the melting point was 205 to 206 °C.
To `O[C@@H](COCc1ccccc1)[C@H](OCc1ccccc1)[C@@H](OCc1ccccc1)[C@@H](O)COCc1ccccc1` belongs 52.5 to 53 °C; to `Cn1nc(SC2c3cc(C#N)ccc3CC(C)(C)C2O)ccc1=O` (stereo unspecified), 149 to 151 °C.
To `C=CCC1(C(=O)OC)C(=O)Nc2ccccc2CC1c1ccc(OC)cc1` (stereo unspecified) belongs 175 to 176 °C; to `COCCNC(=O)c1cccc(-c2cccc3cc(Cc4ccc5c(c4)CCO5)sc23)c1`, 79 to 80 °C.
To `CC(C(=O)O)c1ccc2c(-c3ccc(Cl)cc3)noc2c1` (stereo unspecified) belongs 176 to 179 °C.
In turn, `COc1ccc2cc([C@H](C)C(=O)OCCOC(=O)C(=O)OCCCO[N+](=O)[O-])ccc2c1` showed a melting point of 55 to 58 °C.
As for `CCOC(=O)C(C)=Cc1ccc(Sc2ccncc2)c(C(F)(F)F)c1`, the melting point is more than 200 °C.
